Test systems include HS 578T breast; UACC-62 melanoma; RPMI-8226 leukemia; SK-MEL-5 melanoma; SF-295 CNS; OVCAR-5 ovarian; SK-MEL-2 melanoma; HT29 colon; SNB-19 CNS; RXF 393 renal.
Experiment in all cases: growth of human tumour cells (NCI), 48 h

Several values for one entry are separate records, joined by “and”; a condition that tells them apart may be missing. Equal values may be shown once.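 48-hour exposure; five concentrations; linearly interpolated endpoints. At the GI50, growth is halved. TGI: total growth inhibition.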

On to `O=C(Nc1ccc(Oc2ccc(F)cc2)cc1)[C@@H]1C[C@@H](Cc2ccc(F)cc2)CN1C(=O)Cn1ccnn1`, for which the GI50 in the assay with HS 578T breast is 11.5 µM; in the assay on UACC-62 melanoma, 6.14 µM; in the assay with RPMI-8226 leukemia it was 3.74 µM; in the assay on SK-MEL-5 melanoma, 9.12 µM; in the assay on SF-295 CNS it was 3.64 µM; in the assay on OVCAR-5 ovarian it was 4.52 µM. Further, the GI50 in the assay on SK-MEL-2 melanoma is 8.05 µM; with HT29 colon, 4.2 µM; with SNB-19 CNS it was 9.45 µM; with RXF 393 renal it was 2.85 µM. For the same compound, the TGI is 51.9 µM in the assay with HS 578T breast; 20.9 µM in the assay on UACC-62 melanoma; 26.4 µM with RPMI-8226 leukemia; 22.6 µM in the assay on SK-MEL-5 melanoma; 14.2 µM with SF-295 CNS; 17.7 µM in the assay on OVCAR-5 ovarian. The TGI in the assay with SK-MEL-2 melanoma is 23 µM; in the assay with HT29 colon it was 15 µM; in the assay on SNB-19 CNS, greater than 100 µM; in the assay with RXF 393 renal, 11.6 µM.

Consider `O=C1CC(c2c[nH]c3ccc(F)cc23)C(=O)N1` (stereo not given), for which the GI50 in the assay on HS 578T breast, in the assay on UACC-62 melanoma, in the assay with RPMI-8226 leukemia, in the assay on SK-MEL-5 melanoma, with SF-295 CNS and in the assay with OVCAR-5 ovarian was greater than 100 µM in each case. The GI50 with SK-MEL-2 melanoma, with HT29 colon, in the assay with SNB-19 CNS and with RXF 393 renal was greater than 100 µM each time. Besides, the TGI in the assay on HS 578T breast, in the assay with UACC-62 melanoma, in the assay on RPMI-8226 leukemia, with SK-MEL-5 melanoma, in the assay on SF-295 CNS and with OVCAR-5 ovarian was greater than 100 µM in each case. In addition, the TGI in the assay with SK-MEL-2 melanoma, in the assay with HT29 colon, with SNB-19 CNS and with RXF 393 renal was greater than 100 µM in each case.

In the case of `COc1cc(CNCCCCCCN2C(=O)c3cccc4cccc(c34)C2=O)ccc1O`, the GI50 in the assay on HS 578T breast is 10 µM; in the assay on UACC-62 melanoma it was 13.1 µM; in the assay on RPMI-8226 leukemia, 2.63 µM; in the assay with SK-MEL-5 melanoma, 2 µM; in the assay with SF-295 CNS, 9.13 µM; in the assay on OVCAR-5 ovarian, 14.1 µM. Moreover, the GI50 was 5.56 µM in the assay with SK-MEL-2 melanoma, 2.62 µM in the assay on HT29 colon, 13.6 µM with SNB-19 CNS and 2 µM with RXF 393 renal. The TGI in the assay on HS 578T breast is 37.4 µM; in the assay with UACC-62 melanoma, 26.2 µM; in the assay on RPMI-8226 leukemia, 7.19 µM; in the assay on SK-MEL-5 melanoma, 5.92 µM; in the assay on SF-295 CNS, 25.4 µM; in the assay on OVCAR-5 ovarian, 29 µM. In addition, the TGI in the assay on SK-MEL-2 melanoma was 18.2 µM; in the assay with HT29 colon, 10.1 µM; in the assay with SNB-19 CNS it was 28.5 µM; with RXF 393 renal it was 9.19 µM.

As to `O=C1NC(=NCc2ccccc2Cl)S/C1=C\c1ccc2ncccc2c1`, the GI50 with HS 578T breast is greater than 9.99 µM; in the assay on UACC-62 melanoma, 17.8 µM; in the assay on RPMI-8226 leukemia it was 17 µM; in the assay with SK-MEL-5 melanoma, 22.4 µM; in the assay with SF-295 CNS, 9.59 µM; with OVCAR-5 ovarian it was greater than 25 µM. Besides, the GI50 in the assay on SK-MEL-2 melanoma was 8.5 µM; with HT29 colon it was greater than 25 µM; with SNB-19 CNS it was 13.2 µM; with RXF 393 renal, 8.49 µM. Moreover, the TGI in the assay on HS 578T breast is greater than 19.4 µM; in the assay on UACC-62 melanoma, greater than 25 µM; in the assay on RPMI-8226 leukemia, greater than 25 µM; in the assay on SK-MEL-5 melanoma, greater than 25 µM; with SF-295 CNS, greater than 25 µM; in the assay on OVCAR-5 ovarian, greater than 25 µM. In addition, the TGI is greater than 22.3 µM with SK-MEL-2 melanoma, greater than 25 µM in the assay with HT29 colon, greater than 25 µM in the assay on SNB-19 CNS and greater than 25 µM in the assay with RXF 393 renal.

On to `CC(=O)OCC1OC(n2c(=S)n(-c3ccc([N+](=O)[O-])cc3)c(=O)c3ccccc32)C(OC(C)=O)C(OC(C)=O)C1OC(C)=O` (stereo not given), for which the TGI was 68.5 µM in the assay with HS 578T breast; 34 µM and 40.7 µM with UACC-62 melanoma; 17.8 µM and > 100 µM with RPMI-8226 leukemia; 23.3 µM and > 100 µM with SK-MEL-5 melanoma; > 59.8 µM and 62.3 µM in the assay with SF-295 CNS; greater than 100 µM with OVCAR-5 ovarian. The TGI in the assay on SK-MEL-2 melanoma was 17.4 µM and 58.8 µM; with HT29 colon, greater than 100 µM; in the assay on SNB-19 CNS, 47.5 µM and 69.4 µM; with RXF 393 renal, 17.1 µM and 29.6 µM. Besides, the GI50 was 17.6 µM in the assay with UACC-62 melanoma; 4.41 µM and 19.9 µM with RPMI-8226 leukemia; 8.06 µM and 25.6 µM in the assay on SK-MEL-5 melanoma; 32.2 µM and > 100 µM with OVCAR-5 ovarian; 12 µM and 22.5 µM in the assay on SK-MEL-2 melanoma; 24.4 µM in the assay on SNB-19 CNS. In addition, the GI50 with RXF 393 renal is 4.61 µM and 14.3 µM.

Regarding `COC(=O)NC1C(C)OC(OC2C/C=C(/C)C3C=CC4C(OC5CC(OC6CCC(OC7CC(O)C(OC8CCC(O)C(C)O8)C(C)O7)C(C)O6)C(OC(C)=O)C(C)O5)C(C)CC(C)C4C3(C)/C(O)=C3/C(=O)OC4(CC(C=O)=CC(O)C4/C=C\2C)C3=O)CC1(C)[N+](=O)[O-]` (stereo not given), the TGI with HS 578T breast was 3.76 µM; in the assay with UACC-62 melanoma it was 1.47 µM and 0.319 µM; in the assay on RPMI-8226 leukemia, 5.99 µM and 0.705 µM; with SK-MEL-5 melanoma it was 1.95 µM and 0.511 µM; in the assay on SF-295 CNS, 2.76 µM and 4.15 µM; in the assay with OVCAR-5 ovarian, 4.71 µM and 2.55 µM. In addition, the TGI with HT29 colon is 2.61 µM and 12.8 µM; in the assay on SNB-19 CNS it was 3.45 µM and 0.509 µM; in the assay on RXF 393 renal, 1.27 µM and 0.334 µM. The GI50 with UACC-62 melanoma was 0.155 µM; in the assay with RPMI-8226 leukemia it was 0.225 µM; in the assay on SK-MEL-5 melanoma, 0.2 µM; in the assay with SF-295 CNS, 0.271 µM; in the assay on OVCAR-5 ovarian it was 1.14 µM; in the assay with SK-MEL-2 melanoma it was 0.0551 µM. Also, the results for the GI50 in the assay with HT29 colon, in the assay with SNB-19 CNS and in the assay with RXF 393 renal were 0.352 µM, 0.0728 µM and 0.158 µM, respectively.

On to `O=C(O)C1=C/C(=C(/c2ccccc2)c2cc(C(=O)O)c(O)c3ccccc23)c2ccccc2C1=O`, for which the TGI with HS 578T breast, in the assay on UACC-62 melanoma, in the assay on RPMI-8226 leukemia, in the assay on SK-MEL-5 melanoma, in the assay on SF-295 CNS and in the assay with OVCAR-5 ovarian was greater than 100 µM each time. The TGI in the assay with SK-MEL-2 melanoma, with HT29 colon, with SNB-19 CNS and with RXF 393 renal was greater than 100 µM throughout.

For `CCOC(=O)c1c(-c2ccccc2)[n+](=O)c2cc(Cl)c(Cl)cc2n1[O-]`, the GI50 was 20.1 µM in the assay with HS 578T breast; 5.11 µM in the assay on UACC-62 melanoma; 0.285 µM with RPMI-8226 leukemia; 14.8 µM in the assay on SK-MEL-5 melanoma; 4.17 µM with SF-295 CNS; 22 µM in the assay with OVCAR-5 ovarian. Also, the GI50 is 18.9 µM with SK-MEL-2 melanoma, 12 µM in the assay on HT29 colon, 17.7 µM in the assay on SNB-19 CNS and 6.59 µM in the assay with RXF 393 renal. The TGI with HS 578T breast stood at 49.9 µM; in the assay on UACC-62 melanoma it was 22.6 µM; in the assay on RPMI-8226 leukemia, 1.51 µM; with SK-MEL-5 melanoma, 28.8 µM; with SF-295 CNS, 15.9 µM; in the assay with OVCAR-5 ovarian, 47.7 µM. Besides, the TGI was greater than 100 µM with SK-MEL-2 melanoma, 36.3 µM in the assay with HT29 colon, 35.1 µM in the assay on SNB-19 CNS and 22.9 µM with RXF 393 renal.

The values above are taken from PubChem BioAssay (NCI).
